# Assay results reported in US6825192B1, “Heterodiazinone derivatives” (Eisai Co., Ltd., priority 1999, dated 2004).
# Counter-ions that a name gives are not always drawn.
# System: not given
# Assay: not given
# Conditions: not given
row,SMILES,melting point
1,"O=C1COC(c2ccccn2)=NN1c1ccccc1 (as salt: hydrochloride) [Example 1, 2-(2-Pyridyl)-4-phenyl-4H-1,3,4-oxadiazine-5(6H)-one hydrochloride]",149 to 150 °C
2,"CN(C)CCOc1ccccc1C1=NN(c2ccccc2Br)C(=O)CO1.Cl [Example 54, 2-[2-(2-Dimethylamino)ethoxyphenyl]-4-(2-bromophenyl)-4H-1,3,4-oxadiazine-5(6H)-one hydrochloride]",169 to 170 °C

# System: male ddy mice
# Assay: Inhibitory action on AMPA-inducing spasm
# Type: in vivo
# Conditions: intravenous, 5 minutes before 1.5 nmol AMPA into the ventricle
# Procedure: A test compound or its solvent only was intravenously injected into 4-week-old male ddy mice, and 5 minutes later, 1.5 nmol AMPA was administered into the ventricle thereby inducing spasm. The action of the test chemical was judged by the presence or absence of spasm, and its dose causing 80% or more inhibition was regarded as an effective dose.
row,SMILES,effective dose (dose causing 80% or more inhibition of spasm)
1,"O=C1COC(c2ncccc2O)=NN1c1ccccc1 [Example 14, 2-(3-Hydroxy-2-pyridyl)-4-phenyl-4H-1,3,4-oxadiazine-5(6H)-one]",10 mg/kg
2,"N#Cc1ccccc1N1N=C(c2ccccc2)OCC1=O [Example 36, 2-Phenyl-4-(2-cyanoeyphenyl)-4H-1,3,4-oxadiazine-5(6H)-one]",10 mg/kg
3,"CN(C)CCOc1ccccc1C1=NN(c2ccccc2Br)C(=O)CO1.Cl [Example 54, 2-[2-(2-Dimethylamino)ethoxyphenyl]-4-(2-bromophenyl)-4H-1,3,4-oxadiazine-5(6H)-one hydrochloride]",30 mg/kg
4,"Cl.O=C1COC(c2ccccc2OCCN2CCOCC2)=NN1c1ccccc1Br [Example 68, 2-{2-[2-(4-Morpholinyl)ethoxy]phenyl}-4-(2-bromophenyl)-4H-1,3,4-oxadiazine-5(6H)-one hydrochloride]",30 mg/kg

# System: AMPA receptor
# Assay: Inhibitory action on AMPA-inducing inflow of calcium into nerve cells (Fura2-AM)
# Type: cell-based
# Conditions: rat cerebral cortex nerve cells on astrocytes, 1 μM MK-801, stimulated by 2 μM AMPA, fluorescence 340/380 nm
# Procedure: The cerebral cortex was excised from the brain of a rat on day 18 after birth and treated with trypsin and DNase, whereby the cells were dispersed. The cells were allowed to float on DMEM containing 10% serum, inoculated into a culture bottle, and their astrocytes were grown. The astrocytes were re-dispersed with trypsin and inoculated onto each well on a 96-well plate. After it was confirmed that the bottom of each well was completely covered with the astrocytes after culture for 1 week, cerebral cortex nerve cells dispersed in the same manner as above were inoculated thereon. After 24 hours, the medium was exchanged with fresh one, and after culture for further 1 week, the medium was exchanged with a medium containing 1 μM MK-801.
# The inflow of calcium into the cells was measured using Fura2-AM that is a calcium-sensitive fluorescent pigment. By treating the cells with a Fura2-AM-containing medium for 1 hour, Fura2-AM was incorporated into the cells, and the medium was exchanged with a Tyrode solution containing 1 μM MK-801. After a test compound was added, the cells were stimulated by 2 μM AMPA. The change in the amount of calcium flowing into the cells was measured as a change in the fluorescence intensity at wavelengths of 340/380 nm. The effect of a test compound was evaluated where the reaction caused by AMPA added to the Tyrode solution free of the test compound was used as the control.
row,IC50,SMILES
1,1.56 µM,"O=C1COC(c2ncccc2O)=NN1c1ccccc1 [Example 14, 2-(3-Hydroxy-2-pyridyl)-4-phenyl-4H-1,3,4-oxadiazine-5(6H)-one]"
2,2.28 µM,"N#Cc1ccccc1N1N=C(c2ccccc2)OCC1=O [Example 36, 2-Phenyl-4-(2-cyanoeyphenyl)-4H-1,3,4-oxadiazine-5(6H)-one]"
3,4.14 µM,"CN(C)CCOc1ccccc1C1=NN(c2ccccc2Br)C(=O)CO1.Cl [Example 54, 2-[2-(2-Dimethylamino)ethoxyphenyl]-4-(2-bromophenyl)-4H-1,3,4-oxadiazine-5(6H)-one hydrochloride]"
4,11.1 µM,"Cl.O=C1COC(c2ccccc2OCCN2CCOCC2)=NN1c1ccccc1Br [Example 68, 2-{2-[2-(4-Morpholinyl)ethoxy]phenyl}-4-(2-bromophenyl)-4H-1,3,4-oxadiazine-5(6H)-one hydrochloride]"
5,27.2 µM,"O=C1COC(c2ccccc2OCCN2CCOCC2)=NN1c1ccc(F)cc1 [Example 70, 2-{2-[2-(4-Morpholinyl)ethoxy]phenyl}-4-(4-fluorophenyl)-4H-1,3,4-oxadiazine-5(6H)-one hydrochloride]"
6,21 µM,"O=C1COC(c2ccccc2OCCN2CCOCC2)=NN1c1ccc(F)cc1F [Example 71, 2-{2-[2-(4-Morpholinyl)ethoxy]phenyl}-4-(2,4-difluorophenyl)-4H-1,3,4-oxadiazine-5(6H)-one hydrochloride]"
7,31.8 µM,"Nc1cccc(C2=NN(c3ccccc3)C(=O)CO2)c1 [Example 78, 2-(3-aminophenyl)-4-phenyl-4H-1,3,4-oxadiazine-5(6H)-one]"
8,62 µM,"O=C1COC(c2ccccc2)=NN1C1CCOCC1 [Example 80, 2-Phenyl-4-(tetrahydro-4H-pyran-4-yl)-4H-1,3,4-oxadiazine-5(6H)-one]"
9,16.9 µM,"O=C1COC(c2ccccc2)=NN1C1CCN(Cc2ccccc2)CC1 [Example 86, 2-Phenyl-4-(1-benzyl-4-piperidyl)-4H-1,3,4-oxadiazine-5(6H)-one hydrochloride]"
10,25.4 µM,"CC(c1ccccn1)N1N=C(c2ccccc2)OCC1=O (stereo not shown) [Example 87, 2-Phenyl-4-[1-(2-pyridyl)ethyl]-4H-1,3,4-oxadiazine-5(6H)-one hydrochloride]"
11,52.3 µM,"CC(c1cccnc1)N1N=C(c2ccccc2)OCC1=O (stereo not shown) [Example 88, 2-Phenyl-4-[1-(3-pyridyl)ethyl]-4H-1,3,4-oxadiazine-5(6H)-one oxalate]"
12,54 µM,"CC(c1ccncc1)N1N=C(c2ccccc2)OCC1=O (stereo not shown) [Example 89, 2-Phenyl-4-[1-(4-pyridyl)ethyl]-4H-1,3,4-oxadiazine-5(6H)-one oxalate]"
13,31.4 µM,"CN(C)c1cccc(C2=NN(c3ccccc3)C(=O)CO2)c1 [Example 90, 2-(3-Dimethylaminophenyl)-4-phenyl-4H-1,3,4-oxadiazine-5(6H)-one]"
14,19.1 µM,"CN(C)c1ccccc1C1=NN(c2ccccc2)C(=O)CO1 [Example 91, 2-(2-Dimethylaminophenyl)-4-phenyl-4H-1,3,4-oxadiazine-5(6H)-one]"
15,98.7 µM,"O=C1COC(c2ccncc2)=NN1c1ccccc1 [Example 94, 2-(4-Pyridyl)-4-phenyl-4H-1,3,4-oxadiazine-5(6H)-one hydrochloride]"
16,0.8 µM,"O=C1COC(c2ccccc2)=NN1c1ccccc1Cl [Example 100, 2-Phenyl-4-(2-chlorophenyl)-4H-1,3,4-oxadiazine-5(6)-one]"
17,3.4 µM,"O=C1COC(c2ccccc2)=NN1c1c(Cl)cccc1Cl [Example 101, 2-Phenyl-4-(2,6-dichlorophenyl)-4H-1,3,4-oxadiazine-5(6)-one]"
18,8.2 µM,"O=C1C(O)SC(c2ccccc2)=NN1c1ccccc1 (stereo not shown) [Example 102, 2,4-Diphenyl-6-hydroxy-4-1,3,4-thiadiazine-5-one]"
19,4.2 µM,"CN(CCOc1ccccc1C1=NN(c2ccccc2Br)C(=O)CO1)Cc1ccccc1 [Example 103, 2-{2-[2-(N-Benzyl-N-methyl)amino]ethoxyphenyl}-4-(2-bromophenyl)-4H-1,3,4-oxadiazine-5(6H)-one]"
20,2.7 µM,"CNCCOc1ccccc1C1=NN(c2ccccc2Br)C(=O)CO1 [Example 104, 2-[2-(Methylamino)ethoxyphenyl]-4-(2-bromophenyl)-4H-1,3,4-oxadiazine-5(6H)-one]"
21,1.9 µM,"O=C1COC(c2ccccn2)=NN1c1ccccc1I [Example 105, 2-(2-Pyridyl)-4-(2-iodophenyl)-4H-1,3,4-oxadiazine-5(6H)-one]"
22,7.3 µM,"N#Cc1ccccc1N1N=C(c2ccccn2)OCC1=O [Example 106, 2-(2-Pyridyl)-4-(2-cyanophenyl)-4H-1,3,4-oxadiazine-5(6H)-one]"
23,6.4 µM,"CC1(C)OC(c2ccccc2)=NN(c2ccccc2)C1=O [Example 107, 2,4-Diphenyl-6,6-dimethyl-4H-1,3,4-oxadiazine-5-one]"
24,13.2 µM,"O=C1C(c2ccccc2)OC(c2ccccc2)=NN1c1ccccc1 (stereo not shown) [Example 108, 2,4,6-triphenyl-4H-1,3,4-oxadiazine-5-one]"

row,SMILES,IC50
1,"O=C(Nc1ccccn1)C1=NN(c2ccccc2)C(=O)CO1 [Example 95, N-(2-Pyridyl)-[4-phenyl-4H-1,3,4-oxadiazine-5(6H)-one-2-yl]carboxamide hydrochloride]",48.2 µM
